What was measured:
[1] = tested on: VEGF production in human cancer cell lines; assay: VEGF production in human cancer cell lines (ELISA); type: cell-based
Method: (A) Effect of SNS on VEGF production was analyzed in two cancer cell lines (both supernatants and cell lysates). (B) The supernatant from control and drug treated H460 cells was analyzed for the level of VEGF (pg/ml). C. […] Statistical analyses were performed using one-way ANOVA.
As discussed above, SNS and pancratastatin were originally synthesized as an anti-cancer agent. The inventors also examined the effect of SNS and pancratastatin on the production of VEGF in human cancer cell lines (FIG. 2). […] This analysis had been performed at least 3-5 times depending on the cell lines and drug used, with statistical analysis performed using one-way ANOVA.

Japanese encephalitis = conditions: flavivirus infection; cited from earlier work
tumor growth = conditions: cited from earlier work
[2] = tested on: Encephalitozoan intestinalis; conditions: cited from earlier work
[3] = tested on: TNF-α production by macrophages; conditions: LPS- or bacteria-induced; cited from earlier work
[4] = healthy mice; cited from earlier work
arthritic rats = conditions: cited from earlier work

SMILES	VEGF production, narcistatin compared with pancratistatin [1]	effect on VEGF production/secretion ([1]; human cancer cell lines, ELISA)	survival rate (Japanese encephalitis)	potency in inhibiting tumor growth relative to SNS (tumor growth)	activity against the parasite [2]	TNF-α production by macrophages [3]	growth rate [4]	footpad volumes, severe chronic inflammation (arthritic rats; day 21 post-CFA challenge, treated vs untreated arthritic rats)	inflammation, acute phase (arthritic rats; given from the time of CFA challenge, day 14 post-CFA challenge)
O=C1N[C@H]2[C@H](O)[C@H](O)[C@@H](O)[C@H](O)[C@@H]2c2cc3c(c(O)c21)OCO3 [pancratistatin]	comparable inhibition on VEGF production	inhibitory effect	up to 100%	more potent than SNS in inhibiting tumor growth	activity against the parasite Encephalitozoan intestinalis				
O=C1N[C@@H]2C(=C[C@H](O)[C@@H](O)[C@H]2O)c2cc3c(c(O)c21)OCO3 [narciclasine]						inhibits lipopolysaccharide (LPS)- or bacteria-induced production of TNF-α by macrophages	inhibits the growth rate of healthy mice	no differences in their footpad volumes	able to inhibit inflammation during the acute inflammatory phase

Source: patent US20050261246A1, “Methods for treating inflammatory and autoimmune diseases” (priority 2004, published 2005)
